The results in this text go back to patent publication US20230183193A1, “4-DIFLUOROMETHYL BENZOYL AMIDES WITH HERBICIDAL ACTION” (BAYER CROPSCIENCE AKTIENGESELLSCHAFT, priority 2017, published 2023).

What all share (type): in vivo
For assay [1], the system named is Abutilon theophrasti. Put plainly: Pre-emergence herbicidal action, ABUTH. The settings on record: dosage 320 g/ha, scored visually after 3 weeks vs untreated controls. The method in brief: (§1)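 Weed seeds were laid out in sandy loam and covered with soil, then the soil surface was treated with an aqueous suspension or emulsion of the formulated compound containing 0.2% wetting agent. Pots stayed in the greenhouse for 3 weeks before damage was rated visually against untreated plants.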

In assay [2] the test system is Alopecurus myosuroides. Briefly: Pre-emergence herbicidal action, ALOMY. The settings on record: dosage 320 g/ha, scored visually after 3 weeks vs untreated controls. In outline:
as §1

In assay [3] the test system is Amaranthus retroflexus. Briefly: Pre-emergence herbicidal action, AMARE. Particulars: dosage 320 g/ha, scored visually after 3 weeks vs untreated controls. The method in brief:
as §1

Assay [4] concerns Avena fatua. Briefly: Pre-emergence herbicidal action, AVEFA. Particulars: dosage 320 g/ha, scored visually after 3 weeks vs untreated controls. In outline: as §1
Another assay deals with Cyperus serotinus. Briefly: Pre-emergence herbicidal action, CYPES. Particulars: dosage 320 g/ha, scored visually after 3 weeks vs untreated controls. The method in brief:
as §1

A further assay relates to Matricaria inodora. Briefly: Pre-emergence herbicidal action, MATIN. The settings on record: dosage 320 g/ha, scored visually after 3 weeks vs untreated controls. In outline: as §1
Assay [5] relates to Setaria viridis. Put plainly: Pre-emergence herbicidal action, SETVI. The settings on record: dosage 320 g/ha, scored visually after 3 weeks vs untreated controls. In outline: as §1
In assay [6] the test system is Stellaria media. Put plainly: Pre-emergence herbicidal action, STEME. The settings on record: dosage 320 g/ha, scored visually after 3 weeks vs untreated controls. The method in brief: as §1
Assay [7] deals with Viola tricolor. Briefly: Pre-emergence herbicidal action, VIOTR. The settings on record: dosage 320 g/ha, scored visually after 3 weeks vs untreated controls. The method in brief: as §1
In assay [8] the test system is Abutilon theophrasti. Put plainly: Post-emergence herbicidal action, ABUTH. The settings on record: 80 g/ha, Table D. In outline:
(§2)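 Herbicidal effect is rated visually as percent versus untreated plants (100% = dead, 0% = like control) about 3 weeks after spraying. Plants were sown in sandy loam in the greenhouse and sprayed on green parts at the one-leaf stage, 2 to 3 weeks post-sowing.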

Assay [9] relates to Alopecurus myosuroides. Put plainly: Post-emergence herbicidal action, ALOMY. Particulars: 80 g/ha, Table C. As to the method: Seeds of monocotyledonous and dicotyledonous weed and crop plants are laid out in sandy loam soil in wood-fiber pots, covered with soil and cultivated in a greenhouse under good growth conditions. 2 to 3 weeks after sowing, the test plants are treated at the one-leaf stage. The compounds of the invention, formulated in the form of wettable powders (WP) or as emulsion concentrates (EC), are then sprayed onto the green parts of the plants in the form of an aqueous suspension or emulsion at a water application rate equating to […], with addition of 0.2% wetting agent. After the test plants have been left to stand in the greenhouse under optimal growth conditions for about 3 weeks, the action of the preparations is assessed visually in comparison to untreated controls (herbicidal action in percent (%): 100% activity=the plants have died, 0% activity=like control plants). […] At the same time, inventive compounds leave Gramineae crops such as barley, wheat, rye, millet/sorghum, corn or rice virtually undamaged when applied post-emergence, even at high active compound dosages. In addition, some substances are also harmless to dicotyledonous crops such as soya, cotton, oilseed rape, sugar beet or potatoes. Some of the compounds according to the invention have high selectivity and are therefore suitable for controlling unwanted vegetation in agricultural crops by the post-emergence method. The data of Tables C and D below illustrate, in an exemplary manner, the […] herbicidal action of the compounds according to the invention, the herbicidal activity being stated in percent.
For comparison, the herbicidal activity of numerous compounds according to the invention was tested with the structurally closest compounds known from the documents WO 2011/035874, WO 2012/028579 and WO 2012/126932, by the pre- and post-emergence method.

Assay [10] has as its system Amaranthus retroflexus. Put plainly: Post-emergence herbicidal action, AMARE. Particulars: 80 g/ha, Table D. The method in brief:
as §2

For assay [11], the system named is Avena fatua. Put plainly: Post-emergence herbicidal action, AVEFA. The settings on record: 80 g/ha, Table C. In outline: as §2
Another assay concerns Pharbitis purpureum. Briefly: Post-emergence herbicidal action, PHBPU. The settings on record: 80 g/ha, Table D. In outline:
as §2

The test system of assay [12] is Setaria viridis. Put plainly: Post-emergence herbicidal action, SETVI. Particulars: 80 g/ha, Table C. The method in brief:
as §2

In assay [13] the test system is Stellaria media. Briefly: Post-emergence herbicidal action, STEME. The settings on record: 80 g/ha, Table D. In outline:
as §2

The subject of assay [14] is Viola tricolor. Put plainly: Post-emergence herbicidal action, VIOTR. The settings on record: 80 g/ha, Table D. The method in brief:
as §2

The subject of a further assay is ECHCG. Put plainly: Post-emergence herbicidal action, ECHCG. Particulars: 80 g/ha, Table C. In outline: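 Weed and crop plants grown in sandy loam in the greenhouse, treated at the one-leaf stage 2–3 weeks after sowing. Damage scored visually after about 3 weeks vs untreated controls (0% = control, 100% = dead).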

Consider `CSc1c(C(F)F)ccc(C(=O)Nc2nnnn2C)c1Br` [Example 1-61], for which the “herbicidal activity ABUTH” value in the assay with Abutilon theophrasti [1] and with Abutilon theophrasti [8] was 100% in each case. For the same molecule, the “herbicidal activity ALOMY” value with Alopecurus myosuroides [2] came to 100%; in the assay with Alopecurus myosuroides [9], 90%. Also, the “herbicidal activity AMARE” value in the assay with Amaranthus retroflexus [3] came to 100%; in the assay with Amaranthus retroflexus [10], 90%. For the same molecule, the “herbicidal activity AVEFA” value in the assay on Avena fatua [4] and with Avena fatua [11] was 100% each time. Moreover, the “herbicidal activity CYPES” value in the assay with Cyperus serotinus was found to be 100%. Further, the “herbicidal activity MATIN” value with Matricaria inodora came to 100%. Besides, the “herbicidal activity SETVI” value with Setaria viridis [5] amounted to 100%; in the assay on Setaria viridis [12] it was 90%. In addition, the “Herbicidal activity STEME” value in the assay on Stellaria media [6] and with Stellaria media [13] was 100% throughout. The “herbicidal activity VIOTR” value with Viola tricolor [7] and in the assay on Viola tricolor [14] was 100% each time. The “Herbicidal activity PHBPU” value in the assay on Pharbitis purpureum amounted to 100%. Moreover, the “Herbicidal activity ECHCG” value in the assay with ECHCG was 90%.

With `CCn1nnnc1NC(=O)c1ccc(C(F)F)c([S+](C)[O-])c1Br` (stereo not drawn) [Example 2-62], the “herbicidal activity ABUTH” value in the assay on Abutilon theophrasti [1] and in the assay on Abutilon theophrasti [8] was 100% each time. The “herbicidal activity ALOMY” value amounted to 100% with Alopecurus myosuroides [2] and 90% in the assay on Alopecurus myosuroides [9]. Moreover, the “herbicidal activity AMARE” value in the assay with Amaranthus retroflexus [3] and in the assay on Amaranthus retroflexus [10] was 100% throughout. Further, the “herbicidal activity AVEFA” value in the assay on Avena fatua [4] and with Avena fatua [11] was 100% in each case. In the assay with Cyperus serotinus, the “herbicidal activity CYPES” value turned out to be 100%. Further, in the assay with Matricaria inodora, the “herbicidal activity MATIN” value was determined as 100%. The “herbicidal activity SETVI” value with Setaria viridis [5] and with Setaria viridis [12] was 100% each time. The “Herbicidal activity STEME” value with Stellaria media [6] and in the assay with Stellaria media [13] was 100% in each case. In addition, the “herbicidal activity VIOTR” value in the assay on Viola tricolor [7] and with Viola tricolor [14] was 100% throughout. Moreover, in the assay with Pharbitis purpureum, the “Herbicidal activity PHBPU” value worked out at 100%. The “Herbicidal activity ECHCG” value with ECHCG turned out to be 100%.

Consider `CCS(=O)(=O)c1c(C(F)F)ccc(C(=O)Nc2nnnn2C)c1C1CC1` [Example 1-30], for which the “herbicidal activity ABUTH” value in the assay on Abutilon theophrasti [1] and with Abutilon theophrasti [8] was 100% throughout. Also, the “herbicidal activity ALOMY” value in the assay with Alopecurus myosuroides [2] and in the assay on Alopecurus myosuroides [9] was 100% throughout. The figures for the “herbicidal activity AMARE” value in the assay on Amaranthus retroflexus [3] and with Amaranthus retroflexus [10] were 100% and 90%, respectively. Further, the “herbicidal activity AVEFA” value in the assay on Avena fatua [4] and in the assay with Avena fatua [11] was 100% each time. The “herbicidal activity CYPES” value with Cyperus serotinus is 90%. Besides, in the assay on Matricaria inodora, the “herbicidal activity MATIN” value is recorded as 100%. In addition, the “herbicidal activity SETVI” value in the assay with Setaria viridis [5] and in the assay with Setaria viridis [12] was 100% throughout. Also, the “Herbicidal activity STEME” value in the assay on Stellaria media [6] and with Stellaria media [13] was 100% each time. The “herbicidal activity VIOTR” value in the assay with Viola tricolor [7] and in the assay on Viola tricolor [14] was 100% throughout. For the same molecule, the “Herbicidal activity PHBPU” value in the assay on Pharbitis purpureum was determined as 90%. Further, in the assay on ECHCG, the “Herbicidal activity ECHCG” value was found to be 100%.

Turning to `CCc1c(C(=O)Nc2nnnn2CC)ccc(C(F)F)c1[S+]([O-])CC` (stereo not drawn) [Example 2-17], the “herbicidal activity ABUTH” value with Abutilon theophrasti [1] and in the assay with Abutilon theophrasti [8] was 100% throughout. The “herbicidal activity ALOMY” value in the assay with Alopecurus myosuroides [2] is recorded as 100%; in the assay on Alopecurus myosuroides [9], 90%. The “herbicidal activity AMARE” value with Amaranthus retroflexus [3] and in the assay on Amaranthus retroflexus [10] was 100% in each case. In addition, the “herbicidal activity AVEFA” value in the assay with Avena fatua [4] and in the assay with Avena fatua [11] was 100% each time. The “herbicidal activity CYPES” value in the assay with Cyperus serotinus was 100%. In addition, the “herbicidal activity MATIN” value in the assay on Matricaria inodora is reported as 100%. In addition, the results for the “herbicidal activity SETVI” value in the assay with Setaria viridis [5] and in the assay on Setaria viridis [12] were 100% and 90%, respectively. For the same molecule, the “Herbicidal activity STEME” value in the assay on Stellaria media [6] and in the assay on Stellaria media [13] was 100% throughout. The “herbicidal activity VIOTR” value in the assay with Viola tricolor [7] and in the assay on Viola tricolor [14] was 100% throughout. For the same molecule, the “Herbicidal activity PHBPU” value in the assay with Pharbitis purpureum is on record as 100%. Moreover, in the assay with ECHCG, the “Herbicidal activity ECHCG” value stood at 90%.
